Results on two compounds are retold here after patent US8569297B2, “1-benzyl-3-hydroxymethylindazole derivatives and use thereof in the treatment of diseases based on the expression of MCP-1 and CX3CR1” (Aziende Chimiche Riunite Angelini Francesco A.C.R.A.F. …, priority 2008, dated 2013).

The subject of data set [1] is MCP-1. Nature of the data set: Analysis of the gene expression of MCP-1 in a human monocyte line (real-time RT-PCR). Format: cell-based. As to conditions: 150 μM (maximum soluble concentration), 1 hour pre-incubation; MonoMac6 cells stimulated with LPS 100 ng/ml for 4 hours. As for the experimental part:
The capacity of compound 1 to inhibit the expression of MCP-1 by lipopolysaccharide (LPS)-stimulated MonoMac6 cells was evaluated. The cells were placed in 96-well plates at a concentration of 50 000 cells/well. The compound was tested at the maximum soluble concentration given in Table 1 (in the range 30-300 μM) and incubated for 1 hour. The cells were then stimulated with LPS (100 ng/ml) for 4 hours.
(§1) The total RNA was extracted from the cell pellet using the RNeasy mini kit (Qiagen), reverse-transcribed with the TaqMan Reverse transcription reagents synthesis kit (Applied Biosystems) and the cDNA obtained was used for the real-time PCR reaction. The amplification was obtained in 96-well plates using the ABI Prism 7000 sequence detection system (Applied Biosystems), by applying the following temperature profile: 50° C. for 2 minutes, 95° C. for 10 minutes and 45 cycles at 95° C. for 15 seconds and 60° C. for 1 minute. For the amplification, a set of primers and probe specific for human MCP-1 was used (Applied Biosystems, RefSeq NM_002982.3). […] Once the reaction had taken place, the fluorescence data were analysed using the ABI Prism 7000 SDS software, by calculating the threshold cycle (Ct) for each sample and subsequently performing a relative quantification via the ΔΔCt method.
The results obtained, expressed as a percentage of inhibition, are collated in Table 1 below.

Data set [2] relates to MCP-1. Nature of the data set: Measurement of the production of MCP-1 in a human monocyte line (ELISA). Type of data set: cell-based. As to conditions: MONO-MAC-6, 150 μM (maximum soluble concentration), 1 hour pre-incubation, MonoMac6 cells stimulated with LPS 100 ng/ml for 20 hours, supernatant ELISA, read-out: % inhibition of LPS-induced MCP-1 production (produced protein). The procedure:
The capacity of the compounds 1 and 2 to inhibit the expression of the protein MCP-1 by lipopolysaccharide (LPS)-stimulated MonoMac6 cells was evaluated. The cells were placed in 96-well plates at a concentration of 50 000 cells/well. The compounds were tested at the maximum soluble concentration given in Table 2 (in the range 30-300 μM) and incubated for 1 hour. The cells were then stimulated with LPS (100 ng/ml) for 20 hours.
The amount of MCP-1 produced was measured in the supernatants, suitably diluted with buffer, by means of an immunoenzymatic test (ELISA) using a commercial kit (ELISA MCP-1/JE, R&D Systems).
The results obtained, expressed as a percentage of inhibition, are collated in Table 2 below.
Background: ELISA stands for enzyme-linked immunosorbent assay.

The next data set relates to CX3CR1. Nature of the data set: Analysis of the gene expression of CX3CR1 in a human monocyte line (real-time RT-PCR). The following applies: 150 μM (maximum soluble concentration), 1 hour pre-incubation; MonoMac6 cells stimulated with LPS 100 ng/ml for 20 hours. Type of data set: cell-based. The procedure:
The capacity of compound 1 to inhibit the expression of CX3CR1 by lipopolysaccharide (LPS)-stimulated MonoMac6 cells was evaluated. The cells were placed in 96-well plates at a concentration of 50 000 cells/well. The compound was tested at the maximum soluble concentration given in Table 3 (in the range 30-300 μM) and incubated for 1 hour. The cells were then stimulated with LPS (100 ng/ml) for 20 hours.
as §1, with “CX3CR1” for “MCP-1”, “NM_001337.3).” for “NM_002982.3).”
The results obtained, expressed as a percentage of inhibition, are collated in Table 3 below.
(In qPCR the cycle at which signal appears reflects the starting amount.)

SMILES strings stand for the structures.

As a reminder, the inhibition is how much of the control response was suppressed. The term melting point denotes the temperature, or range, at which the solid turns liquid.

On to `NCC(O)c1nn(Cc2ccccc2)c2ccccc12` (stereo not shown) [Compound 1, 2-amino-1-(1-benzyl-1H-indazol-3-yl)ethanol], for which the melting point was 126 °C (dec.). The “% inhibition of LPS-induced expression of MCP-1 (specific mRNA)” value in the data set with MCP-1 [1] was 64%. In the data set with MCP-1 [2], the inhibition at 150 µM came out at 73%. For the same compound, the “% inhibition of LPS-induced expression of CX3CR1 (specific mRNA)” value with CX3CR1 stood at 96%.
Take `CCNCC(O)c1nn(Cc2ccccc2)c2ccccc12` (stereo not shown) [Compound 2, 1-(1-benzyl-1H-indazol-3-yl)-2-(ethylamino)ethanol]: the “% inhibition of LPS-induced expression of MCP-1 (specific mRNA)” value with MCP-1 [1] is 53%. The inhibition at 150 µM in the data set on MCP-1 [2] was 67%. Moreover, the “% inhibition of LPS-induced expression of CX3CR1 (specific mRNA)” value with CX3CR1 turned out to be 85%.
